Experimental data reported in PMC4198064 (ACS Chemical Neuroscience, 2014).

Test system: HDAC subtypes 1, 2, 3, and 6
Test: [11C]martinostat PET imaging of whole rat brain, blocked tracer binding
Type: in vivo

Row | Compound | blockade of [11C]martinostat uptake in whole brain (500 mg/kg ip, 30 min prior to tracer) | blockade of [11C]martinostat binding in whole brain (subtype-selective benzamides, ip pretreatment)
1 | CCCC(CCC)C(=O)O [sodium valproate] | 16% | 
2 | Nc1cc(F)ccc1NC(=O)/C=C/c1cnn(C/C=C/c2ccccc2)c1 [RGFP966] |  | 7–10%
